Reference: ChEMBL document CHEMBL2406972, “Synthesis and antitumor activities of novel dibenzo[b,d]furan-imidazole hybrid compounds” (Eur J Med Chem, 2013)

Columns and labels:
Type in all cases: functional, cell-based
MCF7 = test: Cytotoxicity against human MCF7 cells after 48 hrs by MTT assay; conditions: MCF7, 48 h
SW480 = test: Cytotoxicity against human SW480 cells after 48 hrs by MTT assay; conditions: SW480, 48 h
HL-60 = test: Cytotoxicity against human HL60 cells after 48 hrs by MTT assay; conditions: HL-60, 48 h
SMMC-7721 = test: Cytotoxicity against human SMMC7721 cells after 48 hrs by MTT assay; conditions: SMMC-7721, 48 h
A549 = test: Cytotoxicity against human A549 cells after 48 hrs by MTT assay; conditions: A549, 48 h

SMILES | IC50 (MCF7) [µM] | IC50 (SW480) [µM] | IC50 (HL-60) [µM] | IC50 (SMMC-7721) [µM] | IC50 (A549) [µM]
c1ccc(C(c2ccc3oc4ccccc4c3c2)n2ccnc2)cc1 (stereo not given) | > 40 | > 40 | 21 | 33.7 | 24.6
O=C(C[n+]1cn(C(c2ccccc2)c2ccc3oc4ccccc4c3c2)c2ccccc21)c1ccc(Br)cc1 (stereo not given) | 2.91 | 3.83 | 2.1 | 3.36 | 3.8
O=C(C[n+]1ccn(C(c2ccccc2)c2ccc3oc4ccccc4c3c2)c1)c1ccccc1 (stereo not given) | 6.29 | 9.05 | 2.14 | 11.4 | 17.7
COc1ccc(C(=O)C[n+]2cn(C(c3ccccc3)c3ccc4oc5ccccc5c4c3)c3ccccc32)cc1 (stereo not given) | 4.78 | 5.56 | 0.64 | 2.1 | 3.34
CC(c1ccc2oc3ccccc3c2c1)n1cc[n+](CC(=O)c2ccc(F)cc2)c1 (stereo not given) | 16.7 | 16.4 | 2.64 | 17.5 | 22.6
O=C(C[n+]1ccn(C(c2ccccc2)c2ccc3oc4ccccc4c3c2)c1)c1ccc(Br)cc1 (stereo not given) | 3.32 | 2.11 | 2.13 | 10.8 | 7.7
Cc1n(C(c2ccccc2)c2ccc3oc4ccccc4c3c2)cc[n+]1Cc1ccc([N+](=O)[O-])cc1 (stereo not given) | 15.3 | 18.2 | 8.74 | 18.5 | > 40
COc1ccc(C(=O)C[n+]2ccn(C(c3ccccc3)c3ccc4oc5ccccc5c4c3)c2)cc1 (stereo not given) | 4.12 | 3.76 | 2.09 | 5.59 | 7.27
CC(c1ccc2oc3ccccc3c2c1)n1cc[n+](CC(=O)c2ccccc2)c1 (stereo not given) | 14.1 | 14.4 | 2.55 | 12.1 | 27
O=C(C[n+]1cn(C(c2ccccc2)c2ccc3oc4ccccc4c3c2)c2ccccc21)c1ccc(O)cc1 (stereo not given) | 9.15 | 15.6 | 2.89 | 10.8 | 17.7
CC(c1ccc2oc3ccccc3c2c1)n1ccnc1 (stereo not given) | > 40 | > 40 | > 40 | > 40 | > 40
CC(c1ccc2oc3ccccc3c2c1)n1c[n+](C(C(=O)c2ccccc2)c2ccccc2)c2ccccc21 (stereo not given) | 9.35 | 10.5 | 2.79 | 5.4 | 12.7
CC(c1ccc2oc3ccccc3c2c1)n1cnc2ccccc21 (stereo not given) | > 40 | > 40 | > 40 | > 40 | > 40
Cc1n(C(c2ccccc2)c2ccc3oc4ccccc4c3c2)cc[n+]1CC(=O)c1ccc2ccccc2c1 (stereo not given) | 2.31 | 2.62 | 0.98 | 2.57 | 3.78
O=C(C[n+]1ccn(C(c2ccccc2)c2ccc3oc4ccccc4c3c2)c1)c1ccc2ccccc2c1 (stereo not given) | 2.78 | 2.57 | 1.91 | 3.61 | 5.86
COc1ccc(C(=O)C[n+]2cn(C(C)c3ccc4oc5ccccc5c4c3)c3ccccc32)cc1 (stereo not given) | 3.42 | 3.18 | 2.05 | 2.95 | 5.95
Cc1n(C(C)c2ccc3oc4ccccc4c3c2)cc[n+]1CC(=O)c1ccc(O)cc1 (stereo not given) | 26.4 | 37.5 | 12.2 | 13.3 | 28.6
CC(c1ccc2oc3ccccc3c2c1)n1c[n+](CC(=O)c2ccc(F)cc2)c2ccccc21 (stereo not given) | 3.85 | 9.77 | 1.67 | 6.31 | 13.7
CCCC[n+]1ccn(C(C)c2ccc3oc4ccccc4c3c2)c1C (stereo not given) | 6.6 | 10 | 3.08 | 7.98 | 13
CC(c1ccc2oc3ccccc3c2c1)n1c[n+](CC(=O)c2ccc(O)cc2)c2ccccc21 (stereo not given) | 14.2 | 16.3 | 2.35 | 24.1 | 20.1
CC(c1ccc2oc3ccccc3c2c1)n1c[n+](Cc2ccc([N+](=O)[O-])cc2)c2ccccc21 (stereo not given) | 13.8 | 13.4 | 5.93 | 18.4 | 32.3
Cc1n(C(c2ccccc2)c2ccc3oc4ccccc4c3c2)cc[n+]1CC(=O)c1ccc(O)cc1 (stereo not given) | 11.8 | 14.3 | 3.92 | 8.84 | 26.2
Cc1n(C(c2ccccc2)c2ccc3oc4ccccc4c3c2)cc[n+]1CC(=O)c1ccc(F)cc1 (stereo not given) | 3.23 | 1.89 | 2.13 | 4.22 | 4.88
CCCC[n+]1ccn(C(c2ccccc2)c2ccc3oc4ccccc4c3c2)c1 (stereo not given) | 6.03 | 13.1 | 1.1 | 8.13 | 11.4

SMILES | IC50 (MCF7) [µM] | IC50 (SW480) [µM] | IC50 (HL-60) [µM] | IC50 (SMMC-7721) [µM] | IC50 (A549) [µM]
CCCC[n+]1cn(C(C)c2ccc3oc4ccccc4c3c2)c2ccccc21 (stereo not given) | 9.41 | 11.1 | 1.67 | 3.78 | 8.55
O=C(C[n+]1ccn(C(c2ccccc2)c2ccc3oc4ccccc4c3c2)c1)c1ccc(O)cc1 (stereo not given) | 7.05 | 15.2 | 2.61 | 6.28 | 6.8
CC(c1ccc2oc3ccccc3c2c1)n1c[n+](CC(=O)c2ccc3ccccc3c2)c2ccccc21 (stereo not given) | 3.14 | 2.95 | 1.65 | 2.24 | 3.46
COc1ccc(C(=O)C[n+]2ccn(C(C)c3ccc4oc5ccccc5c4c3)c2)cc1 (stereo not given) | 9.02 | 12.7 | 3.45 | 9.98 | 12.2
CCCC[n+]1ccn(C(C)c2ccc3oc4ccccc4c3c2)c1 (stereo not given) | 9.11 | 24.1 | 5.63 | 14.2 | 12.8
O=C(C[n+]1ccn(C(c2ccccc2)c2ccc3oc4ccccc4c3c2)c1)c1ccc(F)cc1 (stereo not given) | 4 | 5.16 | 3 | 14.5 | 10.2
Cc1n(C(C)c2ccc3oc4ccccc4c3c2)cc[n+]1Cc1ccc([N+](=O)[O-])cc1 (stereo not given) | > 40 | > 40 | 14.6 | > 40 | > 40
O=[N+]([O-])c1ccc(C[n+]2ccn(C(c3ccccc3)c3ccc4oc5ccccc5c4c3)c2)cc1 (stereo not given) | 10.3 | 19.1 | 10.8 | 15.3 | 28.6
O=C(c1ccccc1)C(c1ccccc1)[n+]1ccn(C(c2ccccc2)c2ccc3oc4ccccc4c3c2)c1 (stereo not given) | 1.46 | 2.36 | 0.52 | 2.38 | 3.75
O=C(C[n+]1cn(C(c2ccccc2)c2ccc3oc4ccccc4c3c2)c2ccccc21)c1ccc(F)cc1 (stereo not given) | 1.87 | 3.6 | 2.18 | 3.57 | 12.1
Cc1nccn1C(c1ccccc1)c1ccc2oc3ccccc3c2c1 (stereo not given) | 23.5 | > 40 | 14.5 | 30.2 | 18.2
COc1ccc(C(=O)C[n+]2ccn(C(c3ccccc3)c3ccc4oc5ccccc5c4c3)c2C)cc1 (stereo not given) | 2.42 | 3.73 | 0.59 | 2.08 | 1.9
COc1ccc(C(=O)C[n+]2ccn(C(C)c3ccc4oc5ccccc5c4c3)c2C)cc1 (stereo not given) | 1.29 | 5.78 | 0.7 | 1.43 | 3.02
Cc1n(C(C)c2ccc3oc4ccccc4c3c2)cc[n+]1CC(=O)c1ccc(Br)cc1 (stereo not given) | 6.77 | 11.8 | 2.67 | 6.4 | 12.8
Cc1n(C(C)c2ccc3oc4ccccc4c3c2)cc[n+]1CC(=O)c1ccccc1 (stereo not given) | 4.49 | 10.1 | 2.85 | 3.02 | 17.9
Cc1n(C(C)c2ccc3oc4ccccc4c3c2)cc[n+]1CC(=O)c1ccc(F)cc1 (stereo not given) | 16.2 | 12.3 | 2.96 | 4.7 | 15.4
CCCC[n+]1cn(C(c2ccccc2)c2ccc3oc4ccccc4c3c2)c2ccccc21 (stereo not given) | 3.37 | 8 | 1.12 | 2.93 | 4.61
Cc1nccn1C(C)c1ccc2oc3ccccc3c2c1 (stereo not given) | 18.7 | 21.4 | 10.9 | > 40 | 16.2
O=[N+]([O-])c1ccc(C[n+]2cn(C(c3ccccc3)c3ccc4oc5ccccc5c4c3)c3ccccc32)cc1 (stereo not given) | 9.26 | 16.7 | 4.6 | 13.2 | 21.7
CC(c1ccc2oc3ccccc3c2c1)n1c[n+](CC(=O)c2ccc(Br)cc2)c2ccccc21 (stereo not given) | 3.08 | 3.18 | 0.66 | 2.62 | 3.54
CC(c1ccc2oc3ccccc3c2c1)n1cc[n+](Cc2ccc([N+](=O)[O-])cc2)c1 (stereo not given) | 13.8 | > 40 | 11.3 | 22.5 | > 40
O=C(C[n+]1cn(C(c2ccccc2)c2ccc3oc4ccccc4c3c2)c2ccccc21)c1ccccc1 (stereo not given) | 2.5 | 3.54 | 2.3 | 4.61 | 13.6
Cc1n(C(C)c2ccc3oc4ccccc4c3c2)cc[n+]1CC(=O)c1ccc2ccccc2c1 (stereo not given) | 1.65 | 3.09 | 0.6 | 2.15 | 3.86
c1ccc(C(c2ccc3oc4ccccc4c3c2)n2cnc3ccccc32)cc1 (stereo not given) | 20.9 | > 40 | 17.2 | 25.4 | 23.4
